According to ChEMBL document CHEMBL4118096, “Branched Peptides: Acridine and Boronic Acid Derivatives as Antimicrobial Agents” (ACS Med Chem Lett, 2017):
Values after ≈ are worked out from the molar mass of the structure shown. Where a SMILES comes first, the peptide text is derived from it. The star is where a group is joined. Benzoyl(4-B(OH)2) = O=C(c1ccc(B(O)O)cc1)*; Bz = O=C(c1ccccc1)*

How the values were obtained:
Type in all cases: functional
[1] = tested on: Escherichia coli; test: Antimicrobial activity against Escherichia coli C ATCC 13706 measured on day 4 by broth microdilution method; conditions: C ATCC 13706, 96 h
[2] = tested on: Mycolicibacterium smegmatis; test: Antimicrobial activity against Mycobacterium smegmatis ATCC 607 measured on day 4 by broth microdilution method; conditions: ATCC 607, 96 h
[3] = tested on: Staphylococcus aureus; test: Antimicrobial activity against Staphylococcus aureus ATCC 6538 measured on day 4 by broth microdilution method; conditions: ATCC 6538, 96 h
[4] = tested on: Candida albicans; test: Antifungal activity against Candida albicans measured on day 4 by broth microdilution method; conditions: 96 h
[5] = tested on: Aspergillus niger; test: Antifungal activity against Aspergillus niger measured on day 4 by broth microdilution method; conditions: 96 h
[6] = tested on: Candida albicans; test: Induction of membrane lysis in Candida albicans assessed as maltase release at MIC after 60 mins relative to control
[7] = tested on: Saccharomyces cerevisiae; test: Induction of membrane lysis activity in Saccharomyces cerevisiae assessed as maltase release at MIC after 60 mins relative to control

| MIC [1] [µg/mL] | MIC [2] [µg/mL] | MIC [3] [µg/mL] | MIC [4] [µg/mL] | MIC [5] [µg/mL] | SMILES | Activity [6] [%] | Activity [7] [%] |
| --- | --- | --- | --- | --- | --- | --- | --- |
| 16 (≈ 10.4 µM) | 32 (≈ 20.7 µM) | 62.5 (≈ 40.5 µM) | 1 (≈ 0.648 µM) | 250 (≈ 162 µM) | NCCCC[C@H](NC(=O)[C@H](CCCCNC(=O)c1ccccc1)NC(=O)[C@H](CCCCNC(=O)c1ccccc1)NC(=O)[C@H](CCCCN)NC(=O)[C@H](CCCCN)NC(=O)[C@H](CCCCN)NC(=O)[C@H](CCCCN)NC(=O)[C@H](CCCCN)NC(=O)[C@@H](N)CCCCN)C(=O)N[C@@H](Cc1ccc(O)cc1)C(=O)O (H-KKKKKKK(Bz)K(Bz)KY-OH) |  |  |
| 8 (≈ 4.95 µM) | 32 (≈ 19.8 µM) | 32 (≈ 19.8 µM) | 4 (≈ 2.48 µM) | 62.5 (≈ 38.7 µM) | CC(C)C[C@H](NC(=O)[C@H](CCCCN)NC(=O)[C@H](CCCCN)NC(=O)[C@H](CCCCN)NC(=O)[C@H](CCCCN)NC(=O)[C@H](CCCCN)NC(=O)[C@@H](N)CCCCN)C(=O)N[C@@H](CCCCNC(=O)c1ccc(B(O)O)cc1)C(=O)N[C@@H](CCCCNC(=O)c1ccc(B(O)O)cc1)C(=O)N[C@@H](Cc1ccc(O)cc1)C(=O)O (H-KKKKKKLK(Benzoyl(4-B(OH)2))K(Benzoyl(4-B(OH)2))Y-OH) |  |  |
| 32 (≈ 19.1 µM) | 62.5 (≈ 37.3 µM) | 32 (≈ 19.1 µM) | 4 (≈ 2.39 µM) | 125 (≈ 74.6 µM) | CC(C)C[C@H](NC(=O)[C@H](CCCCN)NC(=O)[C@H](CCCCN)NC(=O)[C@H](CCCCNC(=O)c1ccccc1)NC(=O)[C@H](CCCCN)NC(=O)[C@H](CCCCN)NC(=O)[C@H](CCCCNC(=O)c1ccccc1)NC(=O)[C@@H](N)CCCCN)C(=O)N[C@@H](CCCCNC(=O)c1ccc(B(O)O)cc1)C(=O)N[C@@H](Cc1ccc(O)cc1)C(=O)O (H-KK(Bz)KKK(Bz)KKLK(Benzoyl(4-B(OH)2))Y-OH) | 18 | 0.4 |
| 16 (≈ 11.1 µM) | 32 (≈ 22.3 µM) | 62.5 (≈ 43.5 µM) | 4 (≈ 2.78 µM) | 125 (≈ 86.9 µM) | CC(C)C[C@H](NC(=O)[C@H](CCCCN)NC(=O)[C@H](CC(C)C)NC(=O)[C@H](CCCCN)NC(=O)[C@H](CCCCN)NC(=O)[C@H](CC(C)C)NC(=O)[C@@H](N)CCCCN)C(=O)N[C@@H](CCCCN)C(=O)N[C@@H](CCCCNC(=O)c1ccc(B(O)O)cc1)C(=O)N[C@@H](Cc1ccc(O)cc1)C(=O)O (H-KLKKLKLKK(Benzoyl(4-B(OH)2))Y-OH) |  |  |
| 16 (≈ 10 µM) | 62.5 (≈ 39 µM) | 62.5 (≈ 39 µM) | 8 (≈ 5 µM) | 125 (≈ 78.1 µM) | CC(C)C[C@H](NC(=O)[C@H](CCCCN)NC(=O)[C@H](CCCCN)NC(=O)[C@H](CC(C)C)NC(=O)[C@H](CCCCN)NC(=O)[C@@H](N)CCCCN)C(=O)N[C@@H](CCCCN)C(=O)N[C@@H](CCCCNC(=O)c1ccc(B(O)O)cc1)C(=O)N[C@@H](CCCCNC(=O)c1ccc(B(O)O)cc1)C(=O)N[C@@H](Cc1ccc(O)cc1)C(=O)O (H-KKLKKLKK(Benzoyl(4-B(OH)2))K(Benzoyl(4-B(OH)2))Y-OH) |  |  |
| 16 (≈ 11.2 µM) | 125 (≈ 87.9 µM) | 62.5 (≈ 43.9 µM) | 8 (≈ 5.62 µM) | 250 (≈ 176 µM) | CC(C)C[C@H](NC(=O)[C@H](CC(C)C)NC(=O)[C@H](CCCCN)NC(=O)[C@H](CC(C)C)NC(=O)[C@@H](N)CC(C)C)C(=O)N[C@@H](CCCCN)C(=O)N[C@@H](CCCCN)C(=O)N[C@@H](CCCCNC(=O)c1ccc(B(O)O)cc1)C(=O)N[C@@H](CCCCN)C(=O)N[C@@H](Cc1ccc(O)cc1)C(=O)O (H-LLKLLKKK(Benzoyl(4-B(OH)2))KY-OH) |  |  |
| 32 (≈ 22.5 µM) | 32 (≈ 22.5 µM) | 62.5 (≈ 43.9 µM) | 2 (≈ 1.4 µM) | 125 (≈ 87.8 µM) | CC(C)C[C@H](NC(=O)[C@H](CCCCNC(=O)c1ccccc1)NC(=O)[C@H](CCCCN)NC(=O)[C@H](CCCCN)NC(=O)[C@H](CCCCN)NC(=O)[C@H](CCCCN)NC(=O)[C@H](CCCCN)NC(=O)[C@@H](N)CCCCN)C(=O)N[C@@H](CCCCN)C(=O)N[C@@H](Cc1ccc(O)cc1)C(=O)O (H-KKKKKKK(Bz)LKY-OH) | <1 | 1 |
| 16 (≈ 11 µM) | 32 (≈ 22 µM) | 32 (≈ 22 µM) | 4 (≈ 2.75 µM) | 62.5 (≈ 43 µM) | CC(C)C[C@H](NC(=O)[C@H](CCCCNC(=O)c1ccc(B(O)O)cc1)NC(=O)[C@H](CC(C)C)NC(=O)[C@H](CCCCN)NC(=O)[C@H](CCCCN)NC(=O)[C@H](CCCCN)NC(=O)[C@H](CCCCN)NC(=O)[C@H](CCCCN)NC(=O)[C@@H](N)CCCCN)C(=O)N[C@@H](Cc1ccc(O)cc1)C(=O)O (H-KKKKKKLK(Benzoyl(4-B(OH)2))LY-OH) |  |  |
| 8 (≈ 4.77 µM) | 62.5 (≈ 37.3 µM) | 62.5 (≈ 37.3 µM) | 8 (≈ 4.77 µM) | 125 (≈ 74.6 µM) | CC(C)C[C@H](NC(=O)[C@H](CCCCN)NC(=O)[C@H](CCCCN)NC(=O)[C@H](CCCCN)NC(=O)[C@H](CCCCNC(=O)c1ccccc1)NC(=O)[C@H](CCCCN)NC(=O)[C@H](CCCCN)NC(=O)[C@@H](N)CCCCNC(=O)c1ccccc1)C(=O)N[C@@H](CCCCNC(=O)c1ccc(B(O)O)cc1)C(=O)N[C@@H](Cc1ccc(O)cc1)C(=O)O (H-K(Bz)KKK(Bz)KKKLK(Benzoyl(4-B(OH)2))Y-OH) |  |  |
| 16 (≈ 11 µM) | 32 (≈ 22 µM) | 32 (≈ 22 µM) | 2 (≈ 1.38 µM) | 125 (≈ 86 µM) | CC(C)C[C@H](NC(=O)[C@H](CCCCN)NC(=O)[C@H](CCCCN)NC(=O)[C@H](CC(C)C)NC(=O)[C@@H](N)CCCCN)C(=O)N[C@@H](CCCCN)C(=O)N[C@@H](CCCCN)C(=O)N[C@@H](CCCCN)C(=O)N[C@@H](CCCCNC(=O)c1ccc(B(O)O)cc1)C(=O)N[C@@H](Cc1ccc(O)cc1)C(=O)O (H-KLKKLKKKK(Benzoyl(4-B(OH)2))Y-OH) |  |  |
| 16 (≈ 10 µM) | 62.5 (≈ 39 µM) | 62.5 (≈ 39 µM) | 16 (≈ 10 µM) | 125 (≈ 78.1 µM) | CC(C)C[C@H](NC(=O)[C@H](CC(C)C)NC(=O)[C@H](CCCCN)NC(=O)[C@H](CCCCNC(=O)c1ccc(B(O)O)cc1)NC(=O)[C@H](CCCCN)NC(=O)[C@H](CCCCN)NC(=O)[C@H](CCCCNC(=O)c1ccc(B(O)O)cc1)NC(=O)[C@@H](N)CCCCN)C(=O)N[C@@H](CCCCN)C(=O)N[C@@H](Cc1ccc(O)cc1)C(=O)O (H-KK(Benzoyl(4-B(OH)2))KKK(Benzoyl(4-B(OH)2))KLLKY-OH) |  |  |
| 16 (≈ 9.07 µM) | 62.5 (≈ 35.4 µM) | 62.5 (≈ 35.4 µM) | 8 (≈ 4.54 µM) | 125 (≈ 70.9 µM) | CC(C)C[C@H](NC(=O)[C@H](CCCCN)NC(=O)[C@H](CCCCNC(=O)c1ccc(B(O)O)cc1)NC(=O)[C@H](CCCCN)NC(=O)[C@H](CCCCN)NC(=O)[C@H](CCCCNC(=O)c1ccc(B(O)O)cc1)NC(=O)[C@H](CCCCN)NC(=O)[C@@H](N)CCCCN)C(=O)N[C@@H](CCCCNC(=O)c1ccc(B(O)O)cc1)C(=O)N[C@@H](Cc1ccc(O)cc1)C(=O)O (H-KKK(Benzoyl(4-B(OH)2))KKK(Benzoyl(4-B(OH)2))KLK(Benzoyl(4-B(OH)2))Y-OH) |  |  |
| 16 (≈ 11.1 µM) | 32 (≈ 22.3 µM) | 62.5 (≈ 43.5 µM) | 4 (≈ 2.78 µM) | 125 (≈ 86.9 µM) | CC(C)C[C@H](NC(=O)[C@H](CC(C)C)NC(=O)[C@H](CCCCN)NC(=O)[C@H](CCCCN)NC(=O)[C@H](CC(C)C)NC(=O)[C@H](CCCCN)NC(=O)[C@@H](N)CCCCN)C(=O)N[C@@H](CCCCN)C(=O)N[C@@H](CCCCNC(=O)c1ccc(B(O)O)cc1)C(=O)N[C@@H](Cc1ccc(O)cc1)C(=O)O (H-KKLKKLLKK(Benzoyl(4-B(OH)2))Y-OH) |  |  |
